Counter-ions that a name gives are not always drawn.
Legend:
Design in all cases: cell survival: unit of the concentration uncertain
[1] = test system: Ph+ALL cell line BV173-T315I; assay: Cytotoxicity assay, BV173-T315I cells; assay type: cell-based
Experimental: (§1) Cytotoxicity assay: CML patient derived cell lines K562 expressing BCR-ABL T315I, Ph+ALL cell line BV173-T315I, and mouse cell line Ba/F3 T315I were used for cytotoxicity testing. All these cell lines express T315I mutant of BCR-ABL. BV-173-T315I is also a model for blast crisis, the terminal stage in CML. Cell lines were cultured in Iscove's Modified Dulbecco's Medium (IMDM) containing L-glutamine and 25 mM Hepes. The cells were maintained at 37° C. in a humidified CO2 incubator. For cytotoxicity measurement 5000-8000 cells were plated into 96 well plates in quadruplicates. Drugs were dissolved in DMSO and cells were treated in increasing doses ranging from 1 to 10^7 fold. Control cells were treated with respective amounts of DMSO. Cells were incubated for 72 hours and, at the end of the incubation point cell, viability was determined. For this purpose, 25 μl of the cell culture from the 96 well plates were transferred to Ultracruz® black bottom 96 well plates (Santa Cruz Biotechnology) and 25 μl of a live cell detecting fluorescent reagent (Cellular Technology Limited (“CTL”)) was added to the cells. The cells and the CTL reagent was mixed thoroughly and centrifuged for 5 min, at the standard g levels normally used to accelerate settling of the cells to the bottom of the culture medium container without damaging the living cells, and the fluorescence was detected at 405 nm excitation using a CTL scanner. Viable cells will fluoresce green and the machine automatically scans and counts the number of viable cells from each well. The percentage of viable cells in drug treated samples relative to the number of viable cells in DMSO treated samples was then calculated. The data obtained were analyzed using Prism nonlinear regression software (Graphpad Software) for the curve fitting and determination of IC50 values.

[2] = test system: mouse cell line Ba/F3 T315I; assay: Cytotoxicity assay, Ba/F3-T315I cells; assay type: cell-based; conditions: for cancer cell survival rate compared to the DMSO control: 72 hours
Experimental: as §1

[3] = test system: K562 expressing BCR-ABL T315I; assay: Cytotoxicity assay, K562-T315I cells; assay type: cell-based, human
Experimental: as §1

[4] = about 10^−6 M to about 10^−5 M, 72 hours

In the case of `Cc1cc(NC(=O)CSc2nc3cc4c(cc3cc2C#N)OCCO4)n(C)n1` [AP-R357, 2-((8-cyano-2,3-dihydro-[1,4]dioxino[2,3-g]quinolin-7-yl)thio)-N-(1,3-dimethyl-1H-pyrazol-5-yl)acetamide], the “cancer cell survival rate compared to the DMSO control” value ([1]; about 30 μM, 72 hours) is reported as “less than 6%”, the “cancer cell survival rate compared to the DMSO control” value ([2]; about 30 μM) is reported as “less than 7%” and the “cancer cell survival rate compared to the DMSO control” value ([3]; about 30 μM, 72 hours) is reported as “less than 20%”.
For `Cc1nn(C)cc1NC(=O)CSc1nc2cc3c(cc2cc1C#N)OCCO3` [AP-R358, 2-((8-cyano-2,3-dihydro-[1,4]dioxino[2,3-g]quinolin-7-yl)thio)-N-(1,3-dimethyl-1H-pyrazol-4-yl)acetamide], the cell survival ([1]; at 0.625 (unit uncertain)) was “above 90%”, the cell survival ([1]; at 10 (unit uncertain)) was “about 20%” and the cell survival ([2]; at 0.625 (unit uncertain)) was “above 90%”. For the same molecule, the cell survival ([2]; at 10 (unit uncertain)) was “about 20%”, the cell survival ([3]; at 0.625 (unit uncertain)) was “above 90%” and the cell survival ([3]; at 10 (unit uncertain)) was “about 20%”.
For `Cc1ccc(CN2CCCC2)cc1NC(=O)CSc1nc2cc3c(cc2cc1C#N)OCCO3` [AP-R235, 2-[(8-cyano-2,3-dihydro-[1,4]dioxino[2,3-g]quinolin-7-yl)sulfanyl]-N-[2-methyl-5-(pyrrolidin-1-ylmethyl)phenyl]acetamide hydrochloride], the “cancer cell survival rate compared to the DMSO control” value ([2]; about 10 μM) was “less than 2%” and the “cancer cell survival rate compared to the DMSO control” value ([3]; about 10 μM, 72 hours) was “less than 10%”.
In the case of `Cc1cc(C(=O)Nc2ccc(CN3CCN(C)CC3)cc2)ccc1NC(=O)CSc1nc2cc3c(cc2cc1C#N)OCCO3` [AP-R234, 4-[2-(8-cyano-2H,3H-[1,4]dioxino[2,3-g]quinolin-7-ylsulfanyl)acetamido]-3-methyl-N-4-[(4-methylpiperazin-1-yl)methyl]phenylbenzamide hydrochloride], the “cancer cell survival rate compared to the DMSO control” value ([2]; dosage printed as 'about M') is reported as “less than 4%” and the “cancer cell survival rate compared to the DMSO control” value ([3]; dosage printed as 'about M', 72 hours) is reported as “less than 4%”.
For `Cc1cc(F)ccc1NC(=O)CSc1nc2cc3c(cc2cc1C#N)OCCO3` [AP-R343, 2-({8-cyano-2H,3H-[1,4]dioxino[2,3-g]quinolin-7-yl}sulfanyl)-N-(4-fluoro-2-methylphenyl)acetamide], the “cancer cell survival rate compared to the DMSO control” value [1, 4] was “less than 5%”, the “cancer cell survival rate compared to the DMSO control” value ([2]; about 10^−6 M to about 10^−5 M) was “less than 5%” and the “cancer cell survival rate compared to the DMSO control” value [3, 4] was “less than 5%”.
`N#Cc1cc2cc3c(cc2nc1SCC(=O)Nc1ccccc1C(N)=O)OCCO3` [AP-R230, 2-[2-(8-cyano-2H,3H-[1,4]dioxino[2,3-g]quinolin-7-ylsulfanyl)acetamido]benzamide] was tested, and the “cancer cell survival rate compared to the DMSO control” value ([2]; about 5 μM to about 10 μM) was “less than 4%” and the “cancer cell survival rate compared to the DMSO control” value ([3]; about 5 μM to about 10 μM, 72 hours) was “less than 4%”.
Molecule `Cc1cc(CN2CCCC2)ccc1NC(=O)CSc1nc2cc3c(cc2cc1C#N)OCCO3` [AP-R352, 2-((8-cyano-2,3-dihydro-[1,4]dioxino[2,3-g]quinolin-7-yl)thio)-N-(2-methyl-4-(pyrrolidin-1-ylmethyl)phenyl)acetamide dihydrochloride] has an IC50 ([1]; 72 hours, read-out: IC50 for cell killing) of 540 nM, an IC50 ([2]; Mus musculus, BaF3, 72 hours, read-out: IC50 for cell killing) of 800 nM and an IC50 ([3]; Homo sapiens, 72 hours, read-out: IC50 for cell killing) of 1090 nM.
`Cc1cccc(Cl)c1NC(=O)CSc1nc2cc3c(cc2cc1C#N)OCCO3` [AP-R342, N-(2-chloro-6-methylphenyl)-2-({8-cyano-2H,3H-[1,4]dioxino[2,3-g]quinolin-7-yl}sulfanyl)acetamide] was tested, and the “cancer cell survival rate compared to the DMSO control” value [1, 4] was “less than 7%”, the “cancer cell survival rate compared to the DMSO control” value ([2]; about 10^−6 M to about 10^−5 M) was “less than 7%” and the “cancer cell survival rate compared to the DMSO control” value [3, 4] was “less than 7%”.
